Reference: patent US20200017496A1 (priority 2017, published 2020)
Like-named read-outs stand apart in the source and are kept apart here.

Assays:
Assay in all cases: MIC of compounds alone and combined with antibacterials, broth microdilution (CLSI)
Format in all cases: cell-based
[1] = system: Escherichia coli (ECO) isolates; conditions: for MIC: Escherichia coli, ATB alone
Protocol: (§1) Method 2: MIC of Compounds Alone and Combined with Antibacterials Against Bacterial Isolates.
(§2) Compounds of the present invention were assessed against genotyped bacterial strains (Table 3, 4) alone or in combination with an antibacterial (Table 2). […] Log phase bacterial suspensions were adjusted to a final density of 5·10^5 CFU/mL in cation-adjusted Mueller-Hinton broth (ca-MHB; Becton-Dickinson and Company) and added to each well (98 μL). Microplates were incubated for 16-20 h at 35° C. in ambient air. The MIC of the compounds was defined as the lowest concentration of said compounds that prevented bacterial growth as read by visual inspection. The MIC of ATB at each compound concentration was defined as the lowest concentration of ATB that prevented bacterial growth as read by visual inspection.

[2] = system: Morganella morganii (MMO) isolates; conditions: for MIC: Morganella morganii, ATB alone, read-out: MIC
Protocol: as §1, §2

[3] = system: Providencia rettgeri (PRE) isolates; conditions: for MIC: Providencia rettgeri, ATB alone; for MIC ATB in combination: strain PRE UFR236
Protocol: as §1, §2

[4] = system: Providencia stuartii (PST) isolates
Protocol: as §1, §2

[5] = system: Serratia marcescens (SMA) isolates; conditions: for MIC: Serratia marcescens
Protocol: as §1, §2

CC(C)(O/N=C(\C(=O)N[C@@H]1C(=O)N2C(C(=O)[O-])=C(C[n+]3ccccc3)CS[C@H]12)c1csc(N)n1)C(=O)O [CAZ, Ceftazidime]
<=0.25 μg/mL: MIC ATB in combination ([1]; ECO UFR207, AF1 @ 4 μg/mL) | MIC ATB in combination ([1]; ECO UFR207, AF1 @ 8 μg/mL) | MIC ATB in combination ([1]; ECO UFR209, AF1 @ 4 μg/mL) | MIC ATB in combination ([1]; ECO UFR209, AF1 @ 8 μg/mL) | MIC ATB in combination ([1]; ECO UFR210, AF1 @ 4 μg/mL) | MIC ATB in combination ([1]; ECO UFR210, AF1 @ 8 μg/mL) | MIC ATB in combination ([1]; ECO UFR211, AF1 @ 8 μg/mL) | MIC ATB in combination ([1]; ECO UFR212, AF1 @ 8 μg/mL) | MIC ATB in combination ([1]; ECO UFR218, AF1 @ 4 μg/mL) | MIC ATB in combination ([2]; MMO 200321, AF1 @ 4 μg/mL) | MIC ATB in combination ([2]; MMO UFR144, AF1 @ 4 μg/mL) | MIC ATB in combination ([2]; MMO UFR144, AF1 @ 8 μg/mL) | MIC ATB in combination ([2]; MMO UFR240, AF1 @ 4 μg/mL) | MIC ATB in combination ([2]; MMO UFR240, AF1 @ 8 μg/mL) | MIC ATB in combination ([2]; MMO UFR241, AF1 @ 4 μg/mL) | MIC ATB in combination ([2]; MMO UFR241, AF1 @ 8 μg/mL) | MIC ATB in combination ([2]; MMO UFR243, AF1 @ 4 μg/mL) | MIC ATB in combination ([2]; MMO UFR243, AF1 @ 8 μg/mL) | MIC ATB in combination ([2]; MMO UFR244, AF1 @ 4 μg/mL) | MIC ATB in combination ([2]; MMO UFR244, AF1 @ 8 μg/mL) | MIC ATB in combination ([2]; MMO UFR245, AF1 @ 4 μg/mL) | MIC ATB in combination ([2]; MMO UFR245, AF1 @ 8 μg/mL) | MIC ATB in combination ([2]; MMO UFR246, AF1 @ 4 μg/mL) | MIC ATB in combination ([2]; MMO UFR246, AF1 @ 8 μg/mL) | MIC ATB in combination ([4]; PST UFR94, AF1 @ 8 μg/mL) | MIC ATB in combination ([4]; PST UFR235, AF1 @ 8 μg/mL) | MIC ATB in combination ([5]; SMA UFR30, AF1 @ 4 μg/mL) | MIC ATB in combination ([5]; SMA UFR30, AF1 @ 8 μg/mL) | MIC ATB in combination ([5]; SMA UFR134, AF1 @ 8 μg/mL) | MIC ATB in combination ([5]; SMA UFR137, AF1 @ 4 μg/mL) | MIC ATB in combination ([5]; SMA UFR137, AF1 @ 8 μg/mL) | MIC ATB in combination ([5]; SMA UFR138, AF1 @ 4 μg/mL) | MIC ATB in combination ([5]; SMA UFR138, AF1 @ 8 μg/mL) | MIC ATB in combination ([5]; SMA UFR139, AF1 @ 4 μg/mL) | MIC ATB in combination ([5]; SMA UFR139, AF1 @ 8 μg/mL) | MIC ATB in combination ([5]; SMA UFR141, AF1 @ 8 μg/mL) | MIC ATB in combination ([5]; strain SMA UFR238, antibacterial combined with AF1 @ 8 μg/mL)
≤ 0.25 µg/mL: MIC ([5]; strain SMA UFR138 (SME-1), ATB alone, read-out: MIC) | MIC ([5]; strain SMA UFR139 (SME-2), ATB alone, read-out: MIC)
2 µg/mL: MIC ATB in combination ([1]; ECO UFR208, AF1 @ 8 μg/mL) | MIC ([1]; strain ECO UFR86 (ompC-, ompF-), read-out: MIC) | MIC ATB in combination ([2]; MMO UFR242, AF1 @ 4 μg/mL) | MIC ATB in combination ([5]; SMA UFR135, AF1 @ 4 μg/mL) | MIC ATB in combination ([5]; SMA UFR136, AF1 @ 4 μg/mL)
4 µg/mL: MIC ATB in combination ([1]; ECO UFR208, AF1 @ 4 μg/mL) | MIC ATB in combination ([1]; ECO UFR212, AF1 @ 4 μg/mL) | MIC ([1]; strain ECO 190549 (CTX-M-1)) | MIC ([1]; strain ECO UFR191 (TEM-1, CTX-M-24, OXA-48)) | MIC ([2]; strain MMO UFR246 (DHA-1)) | MIC ATB in combination ([5]; SMA UFR239, AF1 @ 8 μg/mL)
0.25 µg/mL: MIC ATB in combination ([2]; MMO UFR242, AF1 @ 8 μg/mL)
16 µg/mL: MIC ([1]; strain ECO 190457 (CTX-M-15, OXA-1)) | MIC ([1]; strain ECO 260304 (CTX-M-15)) | MIC ([2]; strain MMO 200321 (TEM-1, CTX-M-15, OXA-1))
1 µg/mL: MIC ([2]; strain MMO UFR243 (DHA-1)) | MIC ATB in combination ([3]; antibacterial combined with AF1 @ 4 μg/mL) | MIC ATB in combination ([4]; PST UFR95, AF1 @ 4 μg/mL) | MIC ATB in combination ([4]; PST UFR235, AF1 @ 4 μg/mL) | MIC ([4]; Providencia stuartii, strain PST UFR94 (CTX-M-14), ATB alone, read-out: MIC) | MIC ATB in combination ([5]; SMA UFR135, AF1 @ 8 μg/mL) | MIC ATB in combination ([5]; SMA UFR136, AF1 @ 8 μg/mL) | MIC ([5]; strain SMA UFR141 (OXA-48), ATB alone, read-out: MIC)
> 256 µg/mL: MIC ([1]; strain ECO UFR185 (OXA-48), read-out: MIC) | MIC ([3]; strain PRE UFR99 (OXA-1, OXA-181)) | MIC [5]
<0.25 µg/mL: MIC ATB in combination ([1]; ECO UFR218, AF1 @ 8 μg/mL)
8 µg/mL: MIC ([1]; strain ECO 190314 (CTX-M-1)) | MIC ([1]; strain ECO 200344 (CTX-M-1)) | MIC ([1]; strain ECO UFR174 (TEM-1, KPC-2, OXA-1)) | MIC ([1]; strain ECO UFR186 (TEM-1, CTX-M-14, OXA-48)) | MIC ([1]; strain ECO UFR187 (CTX-M-15, OXA-48)) | MIC ([2]; strain MMO UFR144 (TEM-1, CTX-M-15)) | MIC ([2]; strain MMO UFR241 (TEM-1, CTX-M-15)) | MIC ([2]; strain MMO UFR245 (DHA-1)) | MIC ATB in combination ([5]; SMA UFR239, AF1 @ 4 μg/mL) | MIC ([5]; strain SMA UFR30 (OXA-405), ATB alone, read-out: MIC) | MIC ([5]; strain SMA UFR134 (TEM-1, BES-1), ATB alone, read-out: MIC)
32 µg/mL: MIC ([1]; strain ECO UFR175 (TEM-1, KPC-2, OXA-9)) | MIC ([1]; strain ECO UFR210 (SHV-12)) | MIC ([2]; strain MMO UFR242 (TEM-52)) | MIC ([3]; strain PRE UFR236 (TEM-1, OXA-48), read-out: MIC) | MIC ([5]; strain SMA UFR135 (TEM-1, KPC-2), ATB alone, read-out: MIC) | MIC ([5]; strain SMA UFR239 (ESAC), ATB alone, read-out: MIC)
0.5 µg/mL: MIC ATB in combination ([1]; ECO UFR211, AF1 @ 4 μg/mL) | MIC ([1]; strain ECO 4133 (TEM-30, OXA-1)) | MIC ([1]; strain ECO 5302 (TEM-1, OXA-1)) | MIC ([1]; strain ECO 131119 (TEM-1, OXA-48)) | MIC ([1]; strain ECO RGN238 (OXA-1)) | MIC ([1]; strain ECO UFR15 (TEM-1, OXA-48)) | MIC ATB in combination ([3]; antibacterial combined with AF1 @ 8 μg/mL) | MIC ATB in combination ([4]; PST UFR94, AF1 @ 4 μg/mL) | MIC ATB in combination ([4]; PST UFR95, AF1 @ 8 μg/mL)
